According to ChEMBL document CHEMBL1151375, “Potential antitumor agents. XVII. physalin B and 25,26-epidihydrophysalin C from Witheringia coccoloboides” (1981):
Values after ≈ are worked out from the molar mass of the structure shown.

Columns and labels:
Type in all cases: functional
[1] = Cytotoxicity against mouse 9PS cells; conditions: read-out: ED50 (the source's name)
[2] = Cytotoxicity against human 9KB cells; conditions: read-out: ED50 (the source's name)
[3] = In vivo cytotoxicity against mouse 3PS cells at 300 mg/kg

SMILES | EC50 [1] | EC50 [2] | T/C [3]
C[C@@]12C[C@H]3OC(=O)[C@@H]1CO[C@]14O[C@@]5([C@H]2C1=O)[C@@]3(C)OC(=O)[C@@]5(O)CC[C@H]1[C@H]4C[C@@H]2O[C@@]23CC=CC(=O)[C@]13C [5-ALPHA,6-ALPHA-EPOXYPHYSALIN B] | 1.6 µg/mL (≈ 3.04 µM) | 0.43 µg/mL (≈ 0.817 µM) | 
C[C@@H]1C(=O)O[C@@H]2C[C@@]1(C)[C@@H]1C(=O)[C@]3(O)O[C@]14[C@@]2(C)OC(=O)[C@@]4(O)CC[C@H]1[C@H]3CC=C2CC=CC(=O)[C@@]21C | 0.89 µg/mL (≈ 1.74 µM) | 12 µg/mL (≈ 23.4 µM) | 
C[C@]12C(=O)C=CCC1=CC[C@@H]1[C@@H]2CC[C@]2(O)C(=O)O[C@@]3(C)[C@H]4C[C@]5(C)[C@@H](CO[C@@]16O[C@@]32[C@H]5C6=O)C(=O)O4 [PHYSALIN B] | 0.01 µg/mL (≈ 0.0196 µM) | 3.1 µg/mL (≈ 6.07 µM) | 137%
